One compound from US20260284240A1, “RADIOLABELED COMPOUND FOR USE IN A METHOD OF TREATING CARBONIC ANHYDRASE IX POSITIVE DISEASES” (DEBIOPHARM INTERNATIONAL S.A., priority 2023, published 2026) can be followed below.

The series can be described thus: Toxicokinetics in the dose range finding study in dogs (LC-HRMS plasma). Type of series: in vivo, dog. As to conditions: for CL / Vss / t1/2 / Dose-normalized AUClast / AUClast / concentration at […]: dog plasma, i.v. bolus; for CL / Vss / t1/2 / AUClast / concentration at […]: mean n = 2; for Dose-normalized AUClast: AUClast divided by dose in μg/kg; for concentration at […]: iv, read-out: C15 min. The protocol: The following parameters and endpoints were evaluated: mortality, clinical observations, body weights, food consumption, local reactions, clinical pathology parameters (hematology, coagulation, and clinical chemistry), organ weights, and macroscopic examinations. Both animals were sampled for toxicokinetics (TK) on each dosing occasion (i.e., on day 1, day 5, day 9 and day 13) at: pre-dose, 15 min, 30 min, 1 h, 6 h and 24 h. Blood samples were collected in K2EDTA tubes. Plasma was prepared by centrifugation (2500 g for 10 minutes, +4° C.) within 1 hour after collection, and then frozen within 1 hour after centrifugation and stored at −80° C. […] Chromatographic separation was achieved using a Waters Acquity UPLC system with a Waters Acquity HSS T3 C18 2.1×50 mm, 1.8 μm column. Chromatography was conducted at 50° C. at a flow rate of 0.7 mL/min using a mobile phase consisting of A: acetonitrile, and B: 1% formic acid in water, according to the following linear gradient: 0 to 0.1 min: 90% B; 0.1 to 4.1 min: from 90% B to 74% B; 4.1 to 4.2 min: from 74% B to 5% B; 4.2 to 4.6 min: 5% B; 4.6 to 4.7 min: from 5% B to 90% B; 4.7-5.1 min; 90% B. Detection was performed using a Sciex AP16600 TOF mass spectrometer. Toxicokinetic parameters were estimated from concentration-time data using Phoenix pharmacokinetic software (version 6.4, Certara L.P.). A non-compartmental approach consistent with the bolus intravenous injection was used for parameter estimation. […] Neither in-life parameters nor clinical pathology parameters were affected. In addition, there were no related macroscopic observations noted at necropsy.

The structures appear in SMILES notation. Read-outs that look alike come from different tables or passages of the source. Starred links: 1 amine or outer side, 2 acyl side, 3 side chain; linkers in the order of their positions; H or OH if unused. Positions of bridges follow the written chain, without caps; N, C: chain ends. Non-standard residues stand in square brackets, D forms with d. Residues, ends and D or L forms follow the SMILES beside them. *: point of attachment. Phe(3-NHCO(CH2)3SO2NH2) = N[C@@H](Cc1cccc(NC(=O)CCCS(N)(=O)=O)c1)C(=O)O; DOTA = O=C(O)CN1CCN(CC(=O)O)CCN(CC(=O)*)CCN(CC(=O)O)CC1; mXylylene = c1cc(C[*:1])cc(C[*:2])c1; X1 = O=C(CN1CCN([*:1])CC1)[*:2]

`CC(C)C[C@@H]1NC(=O)[C@H](Cc2cccc(NC(=O)CCCS(N)(=O)=O)c2)NC(=O)[C@H](CC(=O)O)NC(=O)[C@H]2CCCN2C(=O)[C@H](CCC(=O)O)NC(=O)[C@@H](NC(=O)[C@H](CCC(N)=O)NC(=O)CN2CCN(C(=O)CN3CCN(CC(=O)O)CCN(CC(=O)O)CCN(CC(=O)O)CC3)CC2)CSCc2cccc(c2)CSC[C@@H](C(N)=O)NC(=O)[C@H](CO)NC(=O)[C@H](Cc2c[nH]c3ccccc23)NC(=O)[C@H]([C@@H](C)O)NC1=O` [DPI-4452, DOTA-PPAc-Gln-[Cys(3MeBn)-Glu-pro-Asp-Af3(Cpsu)-Leu-Thr-Trp-Ser-Cys]-NH2] ({DOTA}-[X1]QCE[dP]D[Phe(3-NHCO(CH2)3SO2NH2)]LTWSC-NH2; linker 3-12 via mXylylene): the CL reads like this: (Day 1, […], 1440 min) 11.7 mL/min/kg; (Day 9, 0.4 mg/kg, 12960 min) 6.83 mL/min/kg; (Day 13, 0.8 mg/kg, 18720 min) 3.52 mL/min/kg. Besides, the distribution volume (Vss) reads like this: (Day 1, […], 1440 min) 0.22 L/kg; (Day 9, 0.4 mg/kg, 12960 min) 0.24 L/kg; (Day 13, 0.8 mg/kg, 18720 min) 0.32 L/kg. Further, the t1/2 runs as follows: (Day 1, […], 1440 min) 15 min; (Day 9, 0.4 mg/kg, 12960 min) 29.4 min; (Day 13, 0.8 mg/kg, 18720 min) 52.8 min. The “Dose-normalized AUClast” value was 1.36 (Day 1, […]); 1.46 (Day 5, 0.08 mg/kg); 2.31 (Day 9, 0.4 mg/kg); 4.42 (Day 13, 0.8 mg/kg). Besides, the AUClast by setting is: (Day 5, 0.08 mg/kg, 7200 min) 117 ng·h/mL; (Day 9, 0.4 mg/kg, 12960 min) 926 ng·h/mL; (Day 13, 0.8 mg/kg, 18720 min) 3530 ng·h/mL. Besides, the “Dose proportionality of exposure” value (dog, 25-800 μg/kg i.v.) is recorded as “exposure increased more than dose-proportionally”. The concentration at […] came out at 46.8 ng/mL (Day 1, 0.025 mg/kg); 156 ng/mL (Day 5, 0.08 mg/kg); 880 ng/mL (Day 9, 0.4 mg/kg); 2000 ng/mL (Day 13, 0.8 mg/kg).
